Where two headings read alike, the source gives them in different places.
How the values were obtained:
[1] = test system: YEM 17 C. glabrata, CgCDR up; assay type: cell-based; conditions: 24 hrs, 80% inhibition; for MIC of compound in the presence of fluconazole (+): 1/8 × MIC of fluconazole
[2] = test system: pCgBEN (MF) efflux pump in S. cerevisiae YEM-40; assay type: cell-based, C. glabrata
[3] = test system: YEM 15 C. albicans, CDR1CDR2 up; test: microbe, parasite or virus in culture; assay type: cell-based; conditions: YEM 15, 24 hrs, 80% inhibition; for MIC of compound in the presence of fluconazole (+): 1/8 × MIC of fluconazole
[4] = biological target: pFLU (MF) efflux pump in S. cerevisiae YEM-38 (Candida albicans, UniProt G1UB37); test: cell-based; assay type: cell-based, C. albicans; conditions: YEM-38 pFLU, fluconazole fixed at FLUhalf 2
[5] = biological target: pCgCDR (ABC) efflux pump in S. cerevisiae YEM-39 (Candida glabrata, UniProt Q6FK23); test: cell-based; assay type: cell-based, C. glabrata; conditions: YEM-39 pCgCDR, fluconazole fixed at FLUhalf 4
Sequence of pCgCDR (ABC) efflux pump in S. cerevisiae YEM-39 (Q6FK23 whole entry): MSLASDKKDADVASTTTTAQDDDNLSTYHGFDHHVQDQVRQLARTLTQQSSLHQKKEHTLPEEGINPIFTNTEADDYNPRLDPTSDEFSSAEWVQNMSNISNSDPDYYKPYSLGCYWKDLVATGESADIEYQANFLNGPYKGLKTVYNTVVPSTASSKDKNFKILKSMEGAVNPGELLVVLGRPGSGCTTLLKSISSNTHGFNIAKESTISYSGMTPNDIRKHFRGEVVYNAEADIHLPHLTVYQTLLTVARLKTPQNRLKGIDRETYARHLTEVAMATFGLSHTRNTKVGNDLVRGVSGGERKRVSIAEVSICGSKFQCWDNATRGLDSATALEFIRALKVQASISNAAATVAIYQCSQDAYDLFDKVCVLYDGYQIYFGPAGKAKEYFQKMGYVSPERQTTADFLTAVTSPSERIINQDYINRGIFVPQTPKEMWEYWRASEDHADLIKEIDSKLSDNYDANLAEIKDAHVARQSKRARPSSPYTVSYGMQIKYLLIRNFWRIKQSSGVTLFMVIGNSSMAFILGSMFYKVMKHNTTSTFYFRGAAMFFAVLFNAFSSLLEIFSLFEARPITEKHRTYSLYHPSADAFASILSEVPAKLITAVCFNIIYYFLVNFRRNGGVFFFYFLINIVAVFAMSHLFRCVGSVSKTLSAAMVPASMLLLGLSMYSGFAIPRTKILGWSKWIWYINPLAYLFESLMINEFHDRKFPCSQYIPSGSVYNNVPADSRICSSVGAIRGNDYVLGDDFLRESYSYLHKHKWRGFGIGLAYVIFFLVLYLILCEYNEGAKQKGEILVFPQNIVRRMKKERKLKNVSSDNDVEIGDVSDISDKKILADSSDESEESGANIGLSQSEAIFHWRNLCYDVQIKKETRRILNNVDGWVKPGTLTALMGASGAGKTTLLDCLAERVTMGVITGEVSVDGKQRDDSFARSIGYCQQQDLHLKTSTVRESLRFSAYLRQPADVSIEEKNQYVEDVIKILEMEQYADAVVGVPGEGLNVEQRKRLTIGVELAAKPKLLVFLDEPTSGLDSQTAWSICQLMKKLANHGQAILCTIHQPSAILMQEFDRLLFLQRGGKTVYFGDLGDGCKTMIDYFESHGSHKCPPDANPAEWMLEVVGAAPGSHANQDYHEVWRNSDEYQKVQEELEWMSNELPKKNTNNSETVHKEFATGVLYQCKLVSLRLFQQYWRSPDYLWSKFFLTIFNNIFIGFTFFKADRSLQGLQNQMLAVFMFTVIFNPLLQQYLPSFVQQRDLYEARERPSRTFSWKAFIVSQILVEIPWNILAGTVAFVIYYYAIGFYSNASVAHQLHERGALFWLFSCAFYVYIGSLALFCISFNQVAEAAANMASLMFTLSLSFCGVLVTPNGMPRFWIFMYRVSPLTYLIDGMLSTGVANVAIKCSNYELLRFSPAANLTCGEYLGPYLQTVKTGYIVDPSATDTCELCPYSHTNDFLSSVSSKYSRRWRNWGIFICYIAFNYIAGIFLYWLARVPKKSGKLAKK

YEM 53 C. krusei = test: FEPI MIC with/without 1/8 fluconazole MIC at 24 hrs (Table 11); assay type: cell-based
Aspergillus fumigatus = test: FEPI MICs in combination with 1/4 the azole's MIC (Table 12); assay type: cell-based; design: FEPI MIC (alone): unit not given here; conditions: for FEPI MIC with itraconazole, 60% Inh / FEPI MIC with itraconazole, 80% Inh: itraconazole 0.063 μg/ml (1/4 MIC); for FEPI MIC with ketoconazole, 60% Inh / FEPI MIC with ketoconazole, 80% Inh: ketoconazole 4 μg/ml (1/4 MIC); for FEPI MIC (alone): no azole, 35° C., CM Broth
Procedure: The combinations were tested against a series of Candida strain with known expression of efflux pumps or with complete deletion of all known pumps and Aspergillus fumigatus. Results are reported as minimum inhibitory concentration (MIC) of […] in the presence or absence of […]. A total of 27 distinct milbemycins were studied.

[6] = test system: YEM 24 C. albicans ΔCDR1, ΔCDR2; test: microbe, parasite or virus in culture; assay type: cell-based; conditions: YEM 24, 24 hrs, 80% inhibition; for MIC of compound in the presence of fluconazole (+): 1/8 × MIC of fluconazole
[7] = test system: YEM 13 C. albicans BEN up; test: microbe, parasite or virus in culture; assay type: cell-based; conditions: YEM 13, 24 hrs, 80% inhibition; for MIC of compound in the presence of fluconazole (+): 1/8 × MIC of fluconazole
YEM 51 C. glabrata wt = test: FEPI MIC with/without 1/8 fluconazole MIC at 24 hrs (Table 11); assay type: cell-based
[8] = biological target: pCDR2 (ABC) efflux pump in S. cerevisiae YEM-37 (Candida albicans, UniProt P78595); test: cell-based; assay type: cell-based, C. albicans; conditions: YEM-37 pCDR2, fluconazole fixed at FLUhalf 1
Sequence of pCDR2 (ABC) efflux pump in S. cerevisiae YEM-37 (P78595 whole entry): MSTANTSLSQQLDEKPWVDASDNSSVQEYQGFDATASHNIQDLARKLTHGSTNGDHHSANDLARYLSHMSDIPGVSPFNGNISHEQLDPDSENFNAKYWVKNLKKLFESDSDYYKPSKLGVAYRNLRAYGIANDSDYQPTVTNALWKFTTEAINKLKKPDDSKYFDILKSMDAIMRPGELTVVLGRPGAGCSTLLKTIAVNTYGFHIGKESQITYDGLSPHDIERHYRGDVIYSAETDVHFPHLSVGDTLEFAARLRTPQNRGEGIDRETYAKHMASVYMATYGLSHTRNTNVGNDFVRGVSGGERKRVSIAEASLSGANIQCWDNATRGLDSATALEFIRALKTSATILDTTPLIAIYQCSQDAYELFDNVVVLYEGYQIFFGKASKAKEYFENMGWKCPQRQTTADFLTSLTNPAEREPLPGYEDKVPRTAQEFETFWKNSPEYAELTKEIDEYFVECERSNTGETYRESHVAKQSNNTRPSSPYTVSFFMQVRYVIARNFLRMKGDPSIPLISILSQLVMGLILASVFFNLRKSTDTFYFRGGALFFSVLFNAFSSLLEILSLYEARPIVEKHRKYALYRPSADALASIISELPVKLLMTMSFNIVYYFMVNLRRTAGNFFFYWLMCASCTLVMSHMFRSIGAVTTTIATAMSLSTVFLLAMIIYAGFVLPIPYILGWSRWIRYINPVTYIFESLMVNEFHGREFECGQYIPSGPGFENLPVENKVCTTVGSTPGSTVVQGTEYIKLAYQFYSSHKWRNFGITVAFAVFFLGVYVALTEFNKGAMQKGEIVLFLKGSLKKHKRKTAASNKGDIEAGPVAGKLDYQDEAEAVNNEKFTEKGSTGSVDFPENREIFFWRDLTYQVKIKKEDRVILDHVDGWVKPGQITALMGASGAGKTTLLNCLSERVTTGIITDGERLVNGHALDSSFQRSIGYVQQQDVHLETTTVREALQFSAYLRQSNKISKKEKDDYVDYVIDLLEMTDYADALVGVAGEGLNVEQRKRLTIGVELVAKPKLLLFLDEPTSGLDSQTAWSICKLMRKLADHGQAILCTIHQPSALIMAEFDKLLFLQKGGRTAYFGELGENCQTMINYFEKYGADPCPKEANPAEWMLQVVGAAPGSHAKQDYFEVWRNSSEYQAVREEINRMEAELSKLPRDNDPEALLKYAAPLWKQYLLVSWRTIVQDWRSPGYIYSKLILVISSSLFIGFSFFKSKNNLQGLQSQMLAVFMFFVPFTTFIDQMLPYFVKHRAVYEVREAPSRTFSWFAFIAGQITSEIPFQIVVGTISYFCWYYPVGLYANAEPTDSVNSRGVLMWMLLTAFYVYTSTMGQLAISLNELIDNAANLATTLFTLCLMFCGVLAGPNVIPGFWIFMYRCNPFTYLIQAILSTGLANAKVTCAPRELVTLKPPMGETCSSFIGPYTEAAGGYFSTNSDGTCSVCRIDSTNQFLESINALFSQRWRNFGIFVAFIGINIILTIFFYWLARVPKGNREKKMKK

[9] = test system: YEM 27 C. albicans ΔCDR1ΔCDR2 ΔBENΔFLU1; test: microbe, parasite or virus in culture; assay type: cell-based; conditions: YEM 27, 24 hrs, 80% inhibition; for MIC of compound in the presence of fluconazole (+): 1/8 × MIC of fluconazole
[10] = biological target: pBEN (MF) efflux pump in S. cerevisiae YEM-2 (Candida albicans, UniProt P28873); test: cell-based; assay type: cell-based, C. albicans; conditions: YEM-2 pBEN, fluconazole fixed at FLUhalf 5.6
Sequence of pBEN (MF) efflux pump in S. cerevisiae YEM-2 (P28873 whole entry): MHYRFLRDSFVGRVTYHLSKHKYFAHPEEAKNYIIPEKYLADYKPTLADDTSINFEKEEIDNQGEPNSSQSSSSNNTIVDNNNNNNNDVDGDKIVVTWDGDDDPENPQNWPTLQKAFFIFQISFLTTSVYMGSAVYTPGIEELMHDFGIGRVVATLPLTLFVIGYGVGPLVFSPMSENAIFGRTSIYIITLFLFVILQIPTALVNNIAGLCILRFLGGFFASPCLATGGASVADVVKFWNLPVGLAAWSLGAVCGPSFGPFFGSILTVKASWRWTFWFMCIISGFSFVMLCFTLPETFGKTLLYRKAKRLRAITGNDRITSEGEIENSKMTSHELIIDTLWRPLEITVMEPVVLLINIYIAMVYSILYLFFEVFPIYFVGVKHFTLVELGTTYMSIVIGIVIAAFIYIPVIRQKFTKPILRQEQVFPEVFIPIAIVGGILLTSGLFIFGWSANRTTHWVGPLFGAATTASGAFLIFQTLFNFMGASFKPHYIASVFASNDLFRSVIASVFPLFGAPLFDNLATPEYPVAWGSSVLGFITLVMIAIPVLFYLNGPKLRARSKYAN

[11] = biological target: pCDRI (ABC) efflux pump in S. cerevisiae YEM-1 (Candida albicans, UniProt P43071); test: cell-based; assay type: cell-based, C. albicans; conditions: YEM-1 pCDRI, fluconazole fixed at FLUhalf 5.6
Sequence of pCDRI (ABC) efflux pump in S. cerevisiae YEM-1 (P43071 whole entry): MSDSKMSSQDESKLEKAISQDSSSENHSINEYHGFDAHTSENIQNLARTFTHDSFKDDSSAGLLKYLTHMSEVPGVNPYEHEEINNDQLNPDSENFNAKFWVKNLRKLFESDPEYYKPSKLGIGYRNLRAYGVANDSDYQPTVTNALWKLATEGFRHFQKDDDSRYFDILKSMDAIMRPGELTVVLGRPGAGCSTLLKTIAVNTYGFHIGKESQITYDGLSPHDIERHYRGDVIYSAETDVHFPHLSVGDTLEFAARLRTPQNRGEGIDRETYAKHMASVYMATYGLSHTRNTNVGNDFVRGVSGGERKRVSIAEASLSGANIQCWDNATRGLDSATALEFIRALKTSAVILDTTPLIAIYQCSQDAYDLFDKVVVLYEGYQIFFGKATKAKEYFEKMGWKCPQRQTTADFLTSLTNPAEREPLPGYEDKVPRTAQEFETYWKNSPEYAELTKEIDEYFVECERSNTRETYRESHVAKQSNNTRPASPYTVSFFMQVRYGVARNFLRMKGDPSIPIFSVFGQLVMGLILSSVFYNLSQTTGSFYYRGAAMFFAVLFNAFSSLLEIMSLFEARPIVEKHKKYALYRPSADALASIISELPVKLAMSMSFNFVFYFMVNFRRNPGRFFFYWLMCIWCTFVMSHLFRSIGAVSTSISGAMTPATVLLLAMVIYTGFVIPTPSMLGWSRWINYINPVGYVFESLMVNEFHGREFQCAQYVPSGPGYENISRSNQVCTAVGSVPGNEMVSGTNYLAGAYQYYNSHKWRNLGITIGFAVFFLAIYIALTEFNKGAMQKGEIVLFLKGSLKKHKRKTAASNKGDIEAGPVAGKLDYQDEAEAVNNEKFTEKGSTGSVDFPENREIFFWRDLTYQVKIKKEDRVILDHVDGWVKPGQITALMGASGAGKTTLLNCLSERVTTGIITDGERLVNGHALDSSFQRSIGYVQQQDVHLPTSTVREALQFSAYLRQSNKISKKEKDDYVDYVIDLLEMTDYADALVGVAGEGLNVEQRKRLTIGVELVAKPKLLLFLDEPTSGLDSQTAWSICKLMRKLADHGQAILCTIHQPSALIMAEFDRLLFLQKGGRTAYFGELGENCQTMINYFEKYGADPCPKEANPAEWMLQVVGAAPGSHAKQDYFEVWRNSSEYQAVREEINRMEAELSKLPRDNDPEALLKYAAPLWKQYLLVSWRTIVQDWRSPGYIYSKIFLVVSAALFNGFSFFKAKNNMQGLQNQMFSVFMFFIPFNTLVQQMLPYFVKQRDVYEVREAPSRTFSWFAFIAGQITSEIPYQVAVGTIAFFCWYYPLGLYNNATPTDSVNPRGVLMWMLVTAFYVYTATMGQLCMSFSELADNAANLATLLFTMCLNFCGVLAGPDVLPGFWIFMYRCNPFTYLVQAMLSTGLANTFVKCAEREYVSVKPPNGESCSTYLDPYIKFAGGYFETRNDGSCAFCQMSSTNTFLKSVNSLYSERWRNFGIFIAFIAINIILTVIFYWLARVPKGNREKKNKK

YEM 30 C. albicans wt = test: FEPI MIC with/without 1/8 fluconazole MIC at 24 hrs (Table 11); assay type: cell-based
[12] = YEM 53, 1/8 × MIC of fluconazole, 24 hrs, 80% inhibition
[13] = fluconazole 32 μg/ml (1/4 MIC), 60% inhibition
[14] = fluconazole 32 μg/ml (1/4 MIC), 80% inhibition
[15] = YEM 51, 1/8 × MIC of fluconazole, 24 hrs, 80% inhibition
[16] = YEM 30, 1/8 × MIC of fluconazole, 24 hrs, 80% inhibition
[17] = read-out: FEPIhalf (concentration needed to reduce activity of efflux pump by 50%)

Row | Compound | MIC of compound in the presence of fluconazole (+) [1] [µg/mL] | MIC of compound in the absence of fluconazole (−) [1] [µg/mL] | FEPIhalf (concentration needed to reduce activity of efflux pump by 50%) [2] | MIC of compound in the presence of fluconazole (+) [3] | MIC of compound in the absence of fluconazole (−) [3] [µg/mL] | FEPIhalf (concentration needed to reduce activity of efflux pump by 50%) [4] | MIC of compound in the absence of fluconazole (−) (YEM 53 C. krusei; YEM 53, 24 hrs, 80% inhibition) [µg/mL] | FEPI MIC with itraconazole, 60% Inh (Aspergillus fumigatus; 60% inhibition) | FEPI MIC with itraconazole, 80% Inh (Aspergillus fumigatus; 80% inhibition) | FEPI MIC with ketoconazole, 60% Inh (Aspergillus fumigatus; 60% inhibition) | FEPI MIC with ketoconazole, 80% Inh (Aspergillus fumigatus; 80% inhibition) | FEPI MIC (alone) (Aspergillus fumigatus; 80% inhibition) | MIC of compound in the presence of fluconazole (+) [6] [µg/mL] | MIC of compound in the absence of fluconazole (−) [6] [µg/mL] | MIC of compound in the presence of fluconazole (+) [7] [µg/mL] | MIC of compound in the absence of fluconazole (−) [7] [µg/mL] | MIC of compound in the absence of fluconazole (−) (YEM 51 C. glabrata wt; YEM 51, 24 hrs, 80% inhibition) [µg/mL] | MIC of compound in the presence of fluconazole (+) [9] [µg/mL] | MIC of compound in the absence of fluconazole (−) [9] [µg/mL] | MIC of compound in the absence of fluconazole (−) (YEM 30 C. albicans wt; YEM 30, 24 hrs, 80% inhibition) [µg/mL] | further results
1 | 5-Keto-8-deoxymilbemycin β1 [Compound 22] | > 64 | > 64 | >64 | ≦0.03 | > 64 | >64 | > 64 | >64 | >64 | ≦0.063 | ≦0.063 | >64 | > 64 | > 64 | > 64 | > 64 | > 64 | > 64 | > 64 | > 64 | FEPIhalf (concentration needed to reduce activity of efflux pump by 50%) [5]: 64; MIC of compound in the presence of fluconazole (+) (YEM 53 C. krusei; [12]): 8 µg/mL; FEPI MIC with fluconazole, 60% Inh (Aspergillus fumigatus; [13]): >64; FEPI MIC with fluconazole, 80% Inh (Aspergillus fumigatus; [14]): >64; MIC of compound in the presence of fluconazole (+) (YEM 51 C. glabrata wt; [15]): > 64 µg/mL; FEPIhalf (concentration needed to reduce activity of efflux pump by 50%) [8]: 1; FEPIhalf (concentration needed to reduce activity of efflux pump by 50%) [10]: >64; FEPIhalf (concentration needed to reduce activity of efflux pump by 50%) [11]: <0.06; MIC of compound in the presence of fluconazole (+) (YEM 30 C. albicans wt; [16]): ≦0.03
2 | CCCCC(C)C(=O)OC1[C@@H](O)[C@]2(C[C@@H]3C[C@@H](C/C=C(\C)C[C@@H](C)/C=C/C=C4\CO[C@@H]5[C@H](OC)C(C)=CC(C(=O)O3)[C@]45O)O2)O[C@H](C)[C@H]1C (stereo partly drawn) [Compound 9, Milbemycin α6] | 0.5 | > 64 | – | 0.125 µg/mL | > 64 | – | > 64 | 1 | >64 | ≦0.063 | ≦0.063 | >64 | > 64 | > 64 | > 64 | > 64 | > 64 | > 64 | > 64 | > 64 | FEPIhalf (concentration needed to reduce activity of efflux pump by 50%) ([2]; YEM-40 pCgBEN, fluconazole fixed at FLUhalf 2.8): >64; IC50 [4, 17]: > 93200 nM; IC50 [5, 17]: 1460 nM; MIC of compound in the presence of fluconazole (+) (YEM 53 C. krusei): > 64 µg/mL; FEPI MIC with fluconazole, 60% Inh (Aspergillus fumigatus): 64; FEPI MIC with fluconazole, 80% Inh (Aspergillus fumigatus): >64; MIC of compound in the presence of fluconazole (+) (YEM 51 C. glabrata wt): 1 µg/mL; IC50 [8, 17]: > 93200 nM; IC50 [10, 17]: > 93200 nM; IC50 [11, 17]: 2910 nM; MIC of compound in the presence of fluconazole (+) (YEM 30 C. albicans wt): ≦0.03
3 | CCCCC(C)C(=O)OC1C(C)C(C)OC2(CC3CC(C/C=C(\C)CC(C)/C=C/C=C4\COC5C(O)C(C)=CC(C(=O)O3)C45O)O2)C1O (stereo not drawn) [Compound 8, Milbemycin α5] | 2 | > 64 | >64 | 0.125 µg/mL | > 64 | >64 | > 64 | 1 | 8 | ≦0.063 | ≦0.063 | >64 | > 64 | > 64 | > 64 | > 64 | > 64 | > 64 | > 64 | > 64 | FEPIhalf (concentration needed to reduce activity of efflux pump by 50%) [5]: 8; MIC of compound in the presence of fluconazole (+) (YEM 53 C. krusei; [12]): 32 µg/mL; FEPI MIC with fluconazole, 60% Inh (Aspergillus fumigatus; [13]): 1; FEPI MIC with fluconazole, 80% Inh (Aspergillus fumigatus; [14]): >64; MIC of compound in the presence of fluconazole (+) (YEM 51 C. glabrata wt; [15]): 8 µg/mL; FEPIhalf (concentration needed to reduce activity of efflux pump by 50%) [8]: 2; FEPIhalf (concentration needed to reduce activity of efflux pump by 50%) [10]: 16; FEPIhalf (concentration needed to reduce activity of efflux pump by 50%) [11]: 0.5; MIC of compound in the presence of fluconazole (+) (YEM 30 C. albicans wt; [16]): ≦0.03
